Key:
mRNA [1] = experiment: mRNA stabilization: main peak purity by RP-HPLC (Example 1); assay type: physicochemical; details: LNP mRNA 0.2 mg/mL in buffer, T0, 3-day, 7-day (berberine, palmatine); buffered mRNA, 5 days at 50° C. (coralyne, palmatine)
Text: mRNA purity can be determined by reverse phase high-performance liquid chromatography (RP-HPLC) size based separation. This method can be used to assess mRNA integrity by a length-based gradient RP separation and UV detection of RNA at 260 nm. As used herein “main peak” or “main peak purity” refers to the RP-HPLC signal detected from mRNA that corresponds to the full size mRNA molecule loaded within a given LNP formulation. mRNA purity can also be assessed by fragmentation analysis. Fragmentation analysis (FA) is a method by which nucleic acid (e.g., mRNA) fragments can be analyzed by capillary electrophoresis. Fragmentation analysis involves sizing and quantifying nucleic acids (e.g., mRNA), for example by using an intercalating dye coupled with an LED light source. Such analysis may be completed, for example, with a Fragment Analyzer from Advanced Analytical Technologies, Inc. Berberine USP was combined with an LNP containing mRNA (0.2 mg/ml in buffer) in amounts corresponding to the concentrations reported in FIG. 2. Main peak purity was measured by RP-HPLC at T0, 3-day, and 7-day. See, FIG. 2. Palmatine USP was combined with an LNP containing mRNA (0.2 mg/mL in buffer) in amounts corresponding to the concentrations reported in FIG. 3. Main peak purity was measured by RP-HPLC at T0, 3-day, and 7-day. […] After storage for 5 days at 50° C., main peak purity was measured by RP-HPLC. […]

mRNA [2] = experiment: mRNA LNP stability as a function of pH and temperature (main peak purity); assay type: physicochemical; details: 1 mM excipient, pH 5.5 to 7.4, 0.8 mg/mL, 1 week at 40° C. or 2 weeks at 25° C.
Method: The stability of mRNA LNP formulations was evaluated as a function of pH and temperature in the presence and absence of berberine and palmatine. 1 mM excipients were added in pH conditions 5.5 to 7.4 to evaluate pH impact on mRNA stabilization in mRNA LNPs. For pH between 5.5-6.5, 7 mM citrate and 8% sucrose buffer was used. For pH of 7.4, tris/sucrose buffer was used. The LNP formulations were incubated at 0.8 mg/mL for 1 week at 40° C. or 2 weeks at 25° C., and then main peak purity was measured. Incubation for 1 week at 40° C. or 2 weeks at 25° C. show similar trends. […] See, FIG. 7.

mRNA [3] = experiment: Differential scanning microcalorimetry of mRNA with palmatine chloride; assay type: physicochemical; details: increasing palmatine chloride up to 500 μM, 20 mM Tris, 8% sucrose
Method: With reference to FIG. 9, differential scanning microcalorimetry thermograms were obtained of lipid nanoparticles encapsulating mRNA and containing increasing concentrations of palmatine chloride (left-most trace—free mRNA, right-most trace—500 μM palmatine). The experiments were performed in 20 mM Tris, 8% sucrose buffer.

[4] = Immunogenicity of mRNA LNP stability samples in vivo (serum antibody titers); parameters: species or system BALB/c mice; details: three month, 25° C. stability samples of mRNA LNPs containing palmatine, mice
Method: Experiments were performed to (i) evaluate immunogenicity of mRNA LNPs containing palmatine or berberine at varying concentrations as compared to non-stabilized control mRNA LNPs. BALB/c mice (N=210) are injected with a mRNA LNP stabilized with varying concentrations of palmatine or berberine (e.g., 0, 0.5 mM, 0.75 mM, 1 mM, 2 mM, 5 mM, or 10 mM). Various dose levels (e.g., 2.5 ug/mg; 1.25 ug/mg; or 0.63 ug/mg) are injected into mice intramuscularly on day 1. On day 21, immunogenicity is assessed via serum antibody titers against protein encoded by the mRNA. The mice are given a booster injection on day 22, and then immunogenicity is again assessed on day 36. Three month, 25° C. stability samples from mRNA LNPs containing palmatine at varying concentrations, and non-stabilized mRNA LNPs (no palmatine) were tested in vivo as continued immunogenicity monitoring on stability. […] The drop in antibody titers is correlated to a significant drop in mRNA purity.

mRNA [5] = experiment: mRNA purity of three month, 25° C. stability samples of mRNA LNPs; assay type: physicochemical; details: mRNA LNPs containing palmatine at varying concentrations, 3 months at 25° C.
mRNA [6] = experiment: Long-term stability of mRNA with 2 mM palmatine chloride (intact mRNA by chromatography); assay type: physicochemical; details: for degradation rate (% per month) / greater purity than unstabilized composition: 0.20 mg/ml mRNA + 2 mM palmatine chloride
Method: The degradation rate (% per month) of the stabilized composition was 1.8% as compared to […] for the unstabilized composition. […] The degradation rate (% per month) of the stabilized composition was 8.6% as compared to 38% for the unstabilized composition. […] With reference to FIGS. 10A and 10B, studies were performed to determine the long-term effect of palmatine chloride on thermal stability of mRNA. Aliquots of mRNA solution were mixed with 2 mM palmatine chloride and were incubated for the indicated periods of time at 5° C. (FIG. 10A) and 25° C. (FIG. 10B). The percentage of remaining intact mRNA was quantified using chromatography. The dashed line traces represent mRNA-only samples. The solid line traces represent mRNA samples containing palmatine chloride.

[7] = test system: lipid nanoparticles encapsulating mRNA; experiment: Permeation of palmatine chloride into lipid nanoparticles encapsulating mRNA; assay type: physicochemical; details: 2 mM palmatine, 1 to 14 days, 5, 15, 25 or 40° C., 20 mM Tris, 8% sucrose
Method: Formulations contain 0.20 mg/ml mRNA DP with 2 mM palmatine chloride. With reference to FIG. 11, studies were performed to determine the effect of time and temperature on diffusion (permeation) of palmatine chloride into lipid nanoparticles encapsulating mRNA. The samples were prepared in 20 mM Tris, 8% sucrose. The lipid nanoparticles encapsulating mRNA were incubated in 2 mM palmatine for 1 to 14 days. Free palmatine was separated from the lipid nanoparticles by gel filtration on 40 kD Zeba cartridges, whereas the concentration of lipid nanoparticle-permeated palmatine was determined by reverse phase chromatography using a Luna C18 column.

mRNA [8] = experiment: Stability of mRNA LNPs with DTPA and palmatine chloride (main peak purity); assay type: physicochemical; details: 0.20 mg/ml mRNA LNP, 1 mM DTPA, palmatine chloride 0.5, 1 or 2 mM, up to 5 months
Method: With reference to FIG. 12, studies were performed to determine the stability of lipid nanoparticles encapsulating mRNA containing the chelator DTPA and varying concentrations of palmatine chloride. 0.20 mg/ml samples of lipid nanoparticles encapsulating mRNA and 1 mM DTPA were incubated with palmatine chloride (0 mM, 0.5 mM, 1 mM, or 2 mM). Measurements of main peak (mRNA) purity were taken at time points up to 5 months.

mRNA [9] = experiment: HPLC purity of mRNA stressed at 40° C. for 3 weeks; assay type: physicochemical; details: ~1 mM berberine
Method: HPLC analyses were performed to evaluate the purity of mRNA stressed at elevated temperature (40° C.) for 3 weeks. In the absence of stabilizer, less than 5% of the mRNA (main peak 5.857 min) remained intact. By contrast, in the presence of ˜1 mM berberine, over 22% of the mRNA (main peak 5.857 min) remained intact. […] See, FIG. 5.

mRNA [10] = experiment: mRNA LNP stability at pH 7.4 as a function of berberine concentration (main peak purity); assay type: physicochemical; details: 0-1.5 mM berberine, pH 7.4 tris/sucrose, ~0.2 mg/mL, 1 week at 40° C. or 2 weeks at 25° C.
Method: The stability of mRNA LNP formulations at pH of 7.4 was then further evaluated as a function of berberine concentration. A series of mRNA LNPs were formulated with various levels of berberine (0, 0.2, 0.4, 0.6, 0.8, 1.0, 1.25, 1.5 mM) and stressed in 7.4 pH tris/sucrose buffer at ˜0.2 mg/mL for either 1 week at 40° C. or 2 weeks at 25° C., and then main peak purity was measured. […] In this study, maximal effect occurs in the 1-1.25 mM berberine range. See, FIG. 8.

mRNA LNPs = experiment: Dynamic light scattering of mRNA LNPs after 40° C. stress; assay type: physicochemical; details: 1 mM berberine, 40° C. stress for 1 week
Text: Particle size (e.g., particle diameter) can be determined by Dynamic Light Scattering (DLS). DLS measures a hydrodynamic diameter. Smaller particles diffuse more quickly, leading to faster fluctuations in the scattering intensity and shorter decay times for the autocorrelation function. Larger particles diffuse more slowly, leading to slower fluctuations in the scattering intensity and longer decay times in the autocorrelation function. Dynamic light scattering is sensitive to perturbation to the physical integrity of mRNA LNPs. mRNA LNPs were formulated with 1 mM berberine or without berberine and then exposed to 40° C. temperature stress for 1 week. As a control, mRNA LNPs were formulated without berberine. The size distribution of the mRNA LNPs was then analyzed by dynamic light scattering. […] See, FIG. 6.

Row | Structure (SMILES) | effect on mRNA (main peak purity by RP-HPLC) (mRNA [1]) | stabilizing effect across pH range (main peak purity) (mRNA [2]) | effect of binding on thermal stability of mRNA (DSC thermograms) (mRNA [3]) | antibody titers versus −70° C. non-stabilized control [4] | mRNA purity versus non-stabilized samples (mRNA [5]) | degradation rate (% per month) (mRNA [6]; 5° C. over twelve months) | greater purity than unstabilized composition (mRNA [6]; 5° C., after ten months) [%] | degradation rate (% per month) (mRNA [6]; 25° C. over six months) | greater purity than unstabilized composition (mRNA [6]; 25° C., after six months) [%] | mRNA thermal stability in the presence of the compound (mRNA [6]; 2 mM palmatine chloride, 5° C. and 25° C.) | permeated concentration in lipid nanoparticles as a function of temperature [7] | rate of permeation into lipid nanoparticles as a function of temperature [7] | mRNA stability (main peak purity) (mRNA [8]) | mRNA remaining intact (main peak) (mRNA [9]) | dependence of stabilizing effect on concentration (mRNA [10]) | effect on hydrodynamic characteristics of the lipid nanoparticle (size distribution) (mRNA LNPs)
1 | COc1cc2c(cc1OC)-c1cc3ccc(OC)c(OC)c3c[n+]1CC2 [palmatine] | stabilizing effect | strong stabilizing effects | increased thermal stability of mRNA | more similar antibody titers to the −70 °C control arm | higher mRNA purity than the non-stabilized | 1.8 | 20 | 8.6 | 35 | significantly improved | increased permeated palmatine concentration | increased rate of permeation | significantly improved | – | – | –
2 | COc1ccc2cc3[n+](cc2c1OC)CCc1cc2c(cc1-3)OCO2 [berberine] | stabilizing effect | strong stabilizing effects | – | – | – | – | – | – | – | – | – | – | – | over 22% | concentration-dependent manner | no effect on the hydrodynamic characteristics of the lipid nanoparticle

From patent US20240238211A1, “ISOQUINOLINE-STABILIZED LIPID NANOPARTICLE FORMULATIONS” (ModernaTX, Inc., priority 2021, published 2024)
